Several values for one entry are separate records, joined by “and”; a condition that tells them apart may be missing. Equal entries are not always repeated.
Columns and labels:
[1] = target: T1, human recombinant adrenergic α2B receptor (Homo sapiens, UniProt P18089); experiment: Radioligand binding, adrenergic α2B ([3H]Rauwolscine); conditions: for Percentage inhibition of ligand binding, Adrenergic α2B (0.1 μM): compound at 0.1 μM; for Percentage inhibition of ligand binding, Adrenergic α2B (0.1 μM) / inhibition at 0.03 µM / inhibition at 0.1 µM: [3H]Rauwolscine, repeat datapoints each shown; for Ki: read-out: Ki α2B; for inhibition at 0.03 µM: read-out: Percentage inhibition of ligand binding, Adrenergic α2B (0.03 μM), compound at 0.03 μM; for inhibition at 0.1 µM: read-out: Percentage inhibition of ligand binding, Adrenergic α2B (0.1 μM), compound at 0.1 μM
T1 construct: expressed in transfected cells; host or cells: CHO-K1
T1 sequence (P18089 1-450): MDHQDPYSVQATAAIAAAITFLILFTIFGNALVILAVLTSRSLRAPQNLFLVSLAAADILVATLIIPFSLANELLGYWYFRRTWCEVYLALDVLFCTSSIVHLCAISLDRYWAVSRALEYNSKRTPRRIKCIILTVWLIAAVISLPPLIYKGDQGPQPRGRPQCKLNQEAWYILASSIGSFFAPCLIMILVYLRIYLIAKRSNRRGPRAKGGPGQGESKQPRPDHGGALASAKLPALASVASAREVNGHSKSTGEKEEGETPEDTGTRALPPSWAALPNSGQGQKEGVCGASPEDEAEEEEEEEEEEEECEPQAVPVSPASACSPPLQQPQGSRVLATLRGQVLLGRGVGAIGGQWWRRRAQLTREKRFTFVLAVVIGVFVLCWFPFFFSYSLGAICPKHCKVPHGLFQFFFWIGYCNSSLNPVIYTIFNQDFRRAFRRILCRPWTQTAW
Outline: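 Readout: percent inhibition of specific [3H]Rauwolscine binding, measured by filtration and counting. Conditions: CHO-K1 cell-expressed receptor, 2.5 nM radioligand, 60 min, 25° C, Tris-HCl pH 7.4 buffer with MgCl2, EDTA, BSA. Non-specific binding: 10 μM Prazosin.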

[2] = target: T2, human recombinant adrenergic α2A receptor (Homo sapiens, UniProt P08913); experiment: Radioligand binding, adrenergic α2A ([3H]MK-912); conditions: for Percentage inhibition of ligand binding, Adrenergic α2A (0.1 μM): compound at 0.1 μM; for Percentage inhibition of ligand binding, Adrenergic α2A (0.1 μM) / inhibition at 0.03 µM / inhibition at 0.1 µM: [3H]MK-912, repeat datapoints each shown; for inhibition at 0.03 µM: read-out: Percentage inhibition of ligand binding, Adrenergic α2A (0.03 μM), compound at 0.03 μM; for inhibition at 0.1 µM: read-out: Percentage inhibition of ligand binding, Adrenergic α2A (0.1 μM), compound at 0.1 μM
T2 construct: expressed in transfected cells; host or cells: insect Sf9 cells
T2 sequence (P08913 1-465): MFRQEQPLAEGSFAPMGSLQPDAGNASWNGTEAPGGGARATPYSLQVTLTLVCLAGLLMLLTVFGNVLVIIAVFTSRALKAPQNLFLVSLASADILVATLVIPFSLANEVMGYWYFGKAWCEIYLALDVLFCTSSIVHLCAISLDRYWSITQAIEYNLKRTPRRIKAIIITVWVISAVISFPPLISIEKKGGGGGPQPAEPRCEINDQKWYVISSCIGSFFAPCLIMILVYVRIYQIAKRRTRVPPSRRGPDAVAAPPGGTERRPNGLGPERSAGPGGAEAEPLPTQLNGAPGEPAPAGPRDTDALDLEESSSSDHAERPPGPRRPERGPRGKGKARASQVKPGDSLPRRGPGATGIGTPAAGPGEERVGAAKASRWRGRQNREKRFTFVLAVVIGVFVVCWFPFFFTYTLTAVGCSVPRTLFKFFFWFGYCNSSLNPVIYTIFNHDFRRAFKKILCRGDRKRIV
Outline: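 Sf9-expressed receptor was incubated with compound for 60 min at 25 °C in modified Tris-HCl buffer, pH 7.4. Nonspecific binding was taken as that remaining with 10 μM WB-4101.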

[3] = target: T3, human recombinant adrenergic α1D receptor (Homo sapiens, UniProt P25100); experiment: Radioligand binding, adrenergic α1D ([3H]Prazosin); conditions: [3H]Prazosin, repeat datapoints each shown; for inhibition at 0.1 µM: read-out: Percentage inhibition of ligand binding, Adrenergic α1D (0.1 μM), compound at 0.1 μM; for Percentage inhibition of ligand binding, Adrenergic α1D (0.1 μM): compound at 0.1 μM
T3 construct: expressed in transfected cells; host or cells: HEK-293
T3 sequence (P25100 1-572): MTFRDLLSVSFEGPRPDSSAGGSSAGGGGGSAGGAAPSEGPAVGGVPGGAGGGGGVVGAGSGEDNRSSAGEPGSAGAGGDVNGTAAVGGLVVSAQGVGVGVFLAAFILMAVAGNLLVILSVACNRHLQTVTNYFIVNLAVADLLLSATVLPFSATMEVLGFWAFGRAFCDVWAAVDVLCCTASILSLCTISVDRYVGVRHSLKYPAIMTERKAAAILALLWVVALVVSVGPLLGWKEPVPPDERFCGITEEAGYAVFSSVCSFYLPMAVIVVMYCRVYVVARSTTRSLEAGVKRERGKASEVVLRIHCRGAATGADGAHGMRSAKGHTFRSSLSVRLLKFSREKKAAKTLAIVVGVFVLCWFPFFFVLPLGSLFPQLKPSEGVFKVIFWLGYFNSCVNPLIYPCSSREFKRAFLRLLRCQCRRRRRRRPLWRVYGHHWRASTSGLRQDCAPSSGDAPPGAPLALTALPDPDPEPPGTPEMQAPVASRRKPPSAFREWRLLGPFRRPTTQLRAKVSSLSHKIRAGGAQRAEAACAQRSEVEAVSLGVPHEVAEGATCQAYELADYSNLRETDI
Protocol: Compounds were incubated with 0.6 nM [3H]Prazosin for 60 min at 25° C. Non-specific binding was estimated in the presence of 10 μM phentolamine. Receptor proteins were filtered and washed, the filters were then counted to determine [3H]Prazosin specifically bound. […] Biochemical assay results are presented as the percent inhibition of specific binding in Table B1.

Row | Compound | Percentage inhibition of ligand binding, Adrenergic α2B (0.1 μM) [1] [%] | Ki [1] [nM] | inhibition at 0.03 µM [1] [%] | inhibition at 0.1 µM [1] [%] | Ki [2] [nM] | Percentage inhibition of ligand binding, Adrenergic α2A (0.1 μM) [2] | inhibition at 0.03 µM [2] [%] | inhibition at 0.1 µM [3] [%] | inhibition at 0.1 µM [2] [%] | inhibition at 0.03 µM ([3]; read-out: Percentage inhibition of ligand binding, Adrenergic α1D (0.03 μM), compound at 0.03 μM) [%] | Percentage inhibition of ligand binding, Adrenergic α1D (0.1 μM) [3] [%]
1 | Cc1ccc2c(c1)c1c(n2C2=C(c3ccc(C)s3)CCC2)CCN(C)C1 [compound 190, 2,8-dimethyl-5-(2-(5-methylthiophen-2-yl)cyclopent-1-enyl)-2,3,4,5-tetrahydro-1H-pyrido[4,3-b]indole] | 99 | 2.26 | 88 | 84 | 12.8 | 89% | 49 | 31 | 70 |  | 
2 | Cc1ccc2c(c1)c1c(n2C2=C(c3ccc4c(ccn4C)c3)CCC2)CCN(C)C1 [compound 191, 2,8-dimethyl-5-(2-(1-methyl-1H-indol-5-yl)cyclopent-1-enyl)-2,3,4,5-tetrahydro-1H-pyrido[4,3-b]indole] | 99 | 3.23 | 84 | 89 | 2.1 | 98% | 85 | 43 | 89 |  | 
3 | CCN1CCc2c(c3cc(C)ccc3n2CCc2ccccc2)C1 [compound 201] |  |  | 16 | 36 |  |  |  | 18 | 67 |  | 
4 | CCN1CCc2c(c3cc(C)ccc3n2CC(O)c2ccc(C)cc2)C1 (stereo not shown) [compound 203] |  |  | 23 | 41 |  | 88% |  | 47 |  |  | 

Second part, the compound after the results:

Row | Percentage inhibition of ligand binding, Adrenergic α2B (0.1 μM) [1] [%] | Ki [1] [nM] | inhibition at 0.03 µM [1] [%] | inhibition at 0.1 µM [1] [%] | Ki [2] [nM] | Percentage inhibition of ligand binding, Adrenergic α2A (0.1 μM) [2] | inhibition at 0.03 µM [2] [%] | inhibition at 0.1 µM [3] [%] | inhibition at 0.1 µM [2] [%] | inhibition at 0.03 µM ([3]; read-out: Percentage inhibition of ligand binding, Adrenergic α1D (0.03 μM), compound at 0.03 μM) [%] | Percentage inhibition of ligand binding, Adrenergic α1D (0.1 μM) [3] [%] | Compound
5 | 98 | 4.43 | 78 | 84 | 17.9 | 63% and 84% | 41 | 83 |  |  |  | C/C(=C\n1c2c(c3cc(C)ccc31)CN(C)CC2)c1cnc(N(C)C)nc1 [compound 187]
6 | 107 | 0.86 | 96 | 104 | 2.86 | 86% | 71 | 16 | 81 |  |  | C/C(=C\n1c2c(c3cc(C)ccc31)CN(C)CC2)c1sccc1C [compound 189]
7 |  |  | 7 | 22 |  |  |  | 52 | 92 |  |  | CCN1CCc2c(c3cc(C)ccc3n2CCc2ccc(C)cc2)C1 [compound 202]
8 | 106 | 0.95 | 98 | 103 | 9.59 | 76% and 98% | 58 |  |  | 38 |  | CN1CCc2c(c3cccc(Cl)c3n2CCc2ccccc2)C1 [compound 216]
9 | 97 |  |  | 83 |  | 87% |  | 44 | 82 |  | 47 | COc1ccc(/C(C)=C/n2c3c(c4cc(Cl)ccc42)CCN(C)CC3)cc1F [compound 240]
10 | 93 |  |  | 91 |  | 78% |  | 47 | 75 |  | 49 | COc1ccc(/C(C)=C/n2c3c(c4cc(C)ccc42)CCN(C)CC3)cc1F [compound 241]
